Results as given in ChEMBL document CHEMBL3880418, “Pyripyropene derivative having ACAT2 inhibiting activity and stable to metabolizing enzymes” (2013).

Key:
[1] = molecular target: T1, Sterol O-acyltransferase 2 (Mus musculus) (UniProt O88908); test: Ratio of compound IC50 to PRD 043 IC50 for ACAT2 in mouse hepatic microsomal membranes; type: cell membranes; details: Liver, Microsomal Membrane
T1 sequence (whole entry): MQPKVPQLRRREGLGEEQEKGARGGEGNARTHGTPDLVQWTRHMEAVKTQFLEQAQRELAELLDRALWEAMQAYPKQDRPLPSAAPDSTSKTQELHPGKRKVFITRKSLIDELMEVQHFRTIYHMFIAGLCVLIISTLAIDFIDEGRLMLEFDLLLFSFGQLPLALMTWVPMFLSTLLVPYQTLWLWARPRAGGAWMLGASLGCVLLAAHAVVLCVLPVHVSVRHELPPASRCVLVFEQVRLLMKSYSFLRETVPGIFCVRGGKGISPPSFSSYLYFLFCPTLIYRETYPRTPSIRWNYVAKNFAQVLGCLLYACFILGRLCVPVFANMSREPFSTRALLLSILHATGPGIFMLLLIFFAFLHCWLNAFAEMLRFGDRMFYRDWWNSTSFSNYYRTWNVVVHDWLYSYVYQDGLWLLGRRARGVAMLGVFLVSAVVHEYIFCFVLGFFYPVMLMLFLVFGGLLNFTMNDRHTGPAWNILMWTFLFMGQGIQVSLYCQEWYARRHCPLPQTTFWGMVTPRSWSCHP

[2] = Half life in Sprague-Dawley rat liver microsomes at 6 ug/ml by HPLC method; type: ADME

Ratio IC50 [1] | half-life at 6 ug/ml [2] | Compound
< 20 | > 9 h | CC(=O)O[C@H]1C[C@H]2[C@](C)(COC(=O)C(C)C)[C@@H](OC(=O)C(C)C)CC[C@]2(C)[C@H]2[C@@H](O)c3c(cc(-c4cccnc4)oc3=O)O[C@]12C
< 20 | > 9 h | COc1ccc(CNC(=O)[C@@]2(C)[C@@H](OC(C)=O)CC[C@]3(C)[C@H]4[C@@H](O)c5c(cc(-c6cccnc6)oc5=O)O[C@]4(C)[C@@H](OC(=O)c4ccc(C#N)cc4)C[C@H]32)c(OC)c1
< 20 | > 9 h | Cc1ccccc1[C@@H]1OC[C@@]2(C)[C@@H]3C[C@H](OC(=O)c4ccc(C#N)cc4)[C@@]4(C)Oc5cc(-c6cccnc6)oc(=O)c5[C@H](O)[C@@H]4[C@@]3(C)CC[C@@H]2O1
< 20 | > 9 h | CC(=O)O[C@H]1CC[C@@]2(C)[C@@H](C[C@H](OC(C)=O)[C@@]3(C)Oc4cc(-c5cccnc5)oc(=O)c4[C@H](O)[C@H]23)[C@]1(C)COC(=O)c1ccccc1
< 20 | > 9 h | CC(=O)O[C@H]1CC[C@@]2(C)[C@@H](C[C@H](OC(=O)c3ccc(C#N)cc3)[C@@]3(C)Oc4cc(-c5cccnc5)oc(=O)c4[C@H](O)[C@H]23)[C@]1(C)COC(=O)C(C)C
< 20 | > 9 h | C[C@@]12CO[C@@H](c3ccccc3F)O[C@H]1CC[C@@]1(C)[C@H]2C[C@H](OC(=O)c2ccc(C#N)cc2)[C@@]2(C)Oc3cc(-c4cccnc4)oc(=O)c3[C@H](O)[C@H]12
< 20 | > 9 h | CCCCCC(=O)OC[C@@]1(C)[C@@H]2C[C@H](OC(=O)c3ccc(C#N)cc3)[C@@]3(C)Oc4cc(-c5cccnc5)oc(=O)c4[C@H](O)[C@@H]3[C@@]2(C)CC[C@@H]1OC(=O)CCCCC
< 20 | > 9 h | CC(=O)OC[C@@]1(C)[C@@H]2C[C@H](OC(=O)c3ccc(C#N)cc3)[C@@]3(C)Oc4cc(-c5cccnc5)oc(=O)c4[C@H](O)[C@@H]3[C@@]2(C)CC[C@@H]1OC(=O)c1ccccc1
 | < 1 h | CC(=O)OCC1(C)[C@@H](OC(C)=O)CC[C@]2(C)[C@H]3[C@@H](O)c4c(cc(-c5cccnc5)oc4=O)O[C@]3(C)[C@@H](OC(=O)c3ccccc3C)C[C@@H]12 (single isomer, unassigned)
< 20 | > 9 h | CC(=O)O[C@H]1C[C@H]2[C@]3(C)CO[C@@H](c4ccccc4)O[C@H]3CC[C@]2(C)[C@H]2[C@@H](O)c3c(cc(-c4cccnc4)oc3=O)O[C@]12C
< 20 | > 9 h | CC(=O)OC[C@@]1(C)[C@@H]2C[C@H](OC(=O)c3ccc(C#N)cc3)[C@@]3(C)Oc4cc(-c5cccnc5)oc(=O)c4[C@H](O)[C@@H]3[C@@]2(C)CC[C@@H]1OC(=O)C(C)C
< 20 | > 9 h | COc1ccccc1[C@@H]1OC[C@@]2(C)[C@@H]3C[C@H](OC(=O)c4ccc(F)cc4)[C@@]4(C)Oc5cc(-c6cccnc6)oc(=O)c5[C@H](O)[C@@H]4[C@@]3(C)CC[C@@H]2O1
 | < 1 h | CC(=O)OCC1(C)[C@@H](OC(C)=O)CC[C@]2(C)[C@H]3[C@@H](O)c4c(cc(-c5cccnc5)oc4=O)O[C@]3(C)[C@@H](OC(=O)c3ccccc3F)C[C@@H]12 (single isomer, unassigned)
< 20 | > 9 h | Cc1ccc([C@@H]2OC[C@@]3(C)[C@@H]4C[C@H](OC(=O)c5ccc(F)cc5)[C@@]5(C)Oc6cc(-c7cccnc7)oc(=O)c6[C@H](O)[C@@H]5[C@@]4(C)CC[C@@H]3O2)cc1
 | < 1 h | CC(=O)OCC1(C)[C@@H](OC(C)=O)CC[C@]2(C)[C@H]3[C@@H](O)c4c(cc(-c5cccnc5)oc4=O)O[C@]3(C)[C@@H](OC(=O)c3ccc(C)cc3)C[C@@H]12 (single isomer, unassigned)
< 5 | > 9 h | COc1cccc(C(=O)O[C@H]2C[C@H]3C(C)(COC(C)=O)[C@@H](OC(C)=O)CC[C@]3(C)[C@H]3[C@@H](O)c4c(cc(-c5cccnc5)oc4=O)O[C@]23C)c1 (single isomer, unassigned)
< 20 | > 9 h | COc1ccccc1[C@@H]1OC[C@@]2(C)[C@@H]3C[C@H](OC(=O)c4ccc(C#N)cc4)[C@@]4(C)Oc5cc(-c6cccnc6)oc(=O)c5[C@H](O)[C@@H]4[C@@]3(C)CC[C@@H]2O1
< 20 |  | Cc1cccc([C@@H]2OC[C@@]3(C)[C@@H]4C[C@H](OC(=O)c5ccc(C#N)cc5)[C@@]5(C)Oc6cc(-c7cccnc7)oc(=O)c6[C@H](O)[C@@H]5[C@@]4(C)CC[C@@H]3O2)c1

The next lines start with the molecule.

Compound | Ratio IC50 [1] | half-life at 6 ug/ml [2]
C[C@@]12CO[C@@H](c3ccccc3)O[C@H]1CC[C@@]1(C)[C@H]2C[C@H](OC(=O)c2ccccc2)[C@@]2(C)Oc3cc(-c4cccnc4)oc(=O)c3[C@H](O)[C@H]12 | < 20 | > 9 h
Cc1cccc(C)c1[C@@H]1OC[C@@]2(C)[C@@H]3C[C@H](OC(=O)c4ccc(C#N)cc4)[C@@]4(C)Oc5cc(-c6cccnc6)oc(=O)c5[C@H](O)[C@@H]4[C@@]3(C)CC[C@@H]2O1 | < 20 | > 9 h
COc1ccc(C(OC)O[C@H]2C[C@H]3[C@]4(C)CO[C@@H](c5ccccc5)O[C@H]4CC[C@]3(C)[C@H]3[C@@H](O)c4c(cc(-c5cccnc5)oc4=O)O[C@]23C)cc1 (stereo not given in full) | < 20 | > 9 h
C[C@@]12CO[C@@H](c3cccc4ccccc34)O[C@H]1CC[C@@]1(C)[C@H]2C[C@H](OC(=O)c2ccc(C#N)cc2)[C@@]2(C)Oc3cc(-c4cccnc4)oc(=O)c3[C@H](O)[C@H]12 | < 20 | > 9 h
C[C@]1(COC(=O)c2ccccc2)[C@@H]2C[C@H](OC(=O)c3ccc(C#N)cc3)[C@@]3(C)Oc4cc(-c5cccnc5)oc(=O)c4[C@H](O)[C@@H]3[C@@]2(C)CC[C@@H]1OC(=O)c1ccccc1 | < 20 | > 9 h
CC(C)C(=O)OCC1(C)[C@@H](OC(=O)C(C)C)CC[C@]2(C)[C@H]3[C@@H](O)c4c(cc(-c5cccnc5)oc4=O)O[C@]3(C)[C@@H](OC(=O)c3ccc(C#N)cc3)C[C@@H]12 (single isomer, unassigned) | < 1 | > 9 h
C[C@@]12CO[C@@H](c3ccccc3)O[C@H]1CC[C@@]1(C)[C@H]2C[C@H](OC(=O)C2CCCCC2)[C@@]2(C)Oc3cc(-c4cccnc4)oc(=O)c3[C@H](O)[C@H]12 | < 20 | > 9 h
CN(C)c1ccc([C@@H]2OC[C@@]3(C)[C@@H]4C[C@H](OC(=O)c5ccc(C#N)cc5)[C@@]5(C)Oc6cc(-c7cccnc7)oc(=O)c6[C@H](O)[C@@H]5[C@@]4(C)CC[C@@H]3O2)cc1 | < 20 | > 9 h
CC(=O)O[C@H]1CC[C@]2(C)[C@H]3[C@@H](O)c4c(cc(-c5cccnc5)oc4=O)O[C@]3(C)[C@@H](OC(=O)c3ccc(C#N)cc3)C[C@H]2[C@@]1(C)C(=O)O | < 20 | > 9 h
Cc1ccc([C@@H]2OC[C@@]3(C)[C@@H]4C[C@H](OC(=O)c5ccc(C#N)cc5)[C@@]5(C)Oc6cc(-c7cccnc7)oc(=O)c6[C@H](O)[C@@H]5[C@@]4(C)CC[C@@H]3O2)c(C)c1 | < 20 | > 9 h
CC(C)C(=O)OC[C@@]1(C)[C@@H]2C[C@H](OC(=O)c3ccc([N+](=O)[O-])cc3)[C@@]3(C)Oc4cc(-c5cccnc5)oc(=O)c4[C@H](O)[C@@H]3[C@@]2(C)CC[C@@H]1OC(=O)C(C)C | < 20 | > 9 h
COC(=O)[C@@]1(C)[C@@H](OC(C)=O)CC[C@]2(C)[C@H]3[C@@H](O)c4c(cc(-c5cccnc5)oc4=O)O[C@]3(C)[C@@H](OC(=O)c3ccc(C#N)cc3)C[C@H]21 | < 20 | > 9 h
Cc1ccccc1[C@@H]1OC[C@@]2(C)[C@@H]3C[C@H](OC(=O)c4ccc(F)cc4)[C@@]4(C)Oc5cc(-c6cccnc6)oc(=O)c5[C@H](O)[C@@H]4[C@@]3(C)CC[C@@H]2O1 | < 20 | > 9 h
Cc1ccc([C@@H]2OC[C@@]3(C)[C@@H]4C[C@H](OC(=O)c5ccc(F)cc5)[C@@]5(C)Oc6cc(-c7cccnc7)oc(=O)c6[C@H](O)[C@@H]5[C@@]4(C)CC[C@@H]3O2)c(C)c1 | < 20 | > 9 h
CC(=O)O[C@H]1CC[C@@]2(C)[C@@H](C[C@H](OC(=O)c3ccc(C#N)cc3)[C@@]3(C)Oc4cc(-c5cccnc5)oc(=O)c4[C@H](O)[C@H]23)[C@]1(C)COC(=O)c1ccccc1 | < 20 | > 9 h
CC(=O)OCC1(C)[C@@H](OC(C)=O)CC[C@]2(C)[C@H]3[C@@H](O)c4c(cc(-c5cccnc5)oc4=O)O[C@]3(C)[C@@H](OC(=O)c3cccc(Br)c3)C[C@@H]12 (single isomer, unassigned) |  | < 1 h
CC(=O)OCC1(C)[C@@H](OC(C)=O)CC[C@]2(C)[C@H]3[C@@H](O)c4c(cc(-c5cccnc5)oc4=O)O[C@]3(C)[C@@H](OC(=O)C3CCCCC3)C[C@@H]12 (single isomer, unassigned) |  | < 1 h
CCc1ccc(C(=O)O[C@H]2C[C@H]3C(C)(COC(C)=O)[C@@H](OC(C)=O)CC[C@]3(C)[C@H]3[C@@H](O)c4c(cc(-c5cccnc5)oc4=O)O[C@]23C)cc1 (single isomer, unassigned) |  | < 1 h
